Measured values published in publication PMC4658182, “The Synthetic Antimicrobial Peptide 19-2.5 Interacts with Heparanase and Heparan Sulfate in Murine and Human Sepsis” (PLoS ONE, 2015).
Blank lines part the entries; values can stand above or below the molecule they belong to.

Legend:
[1] = Isothermal titration calorimetry, binding to HS-fragments; details: vs peptide 19–2.5 (Table 2)
Method: Isothermal titration calorimetry (ITC) experiments were performed as previously described. Briefly, the binding of peptide 19–2.5 to heparanase or HS-fragments was recorded by measuring the enthalpy change of the reaction at 37°C. For this, a total of 100 μg/ml heparanase (R&D Systems Europe Ltd., Abingdon, United Kingdom) and 200 μg/ml HS-fragments (H7640 Sigma-Aldrich, St. Louis, MO, USA) were dispersed into the calorimetric cell, and 2 mM peptide 19–2.5 was titrated to this dispersion stepwise in 3 μl portions. After exploring experiments, the concentration of HS was 100 μg/ml titrated with 1.5 μl of peptide 19–2.5 (2 mM) 20 times at 37°C.
Fig 5 Isothermal titration calorimetry (ITC). For the ITC experiments, 2 mM peptide 19–2.5 was titrated to this dispersion stepwise in 3 μl portions into (A) 200 μg/ml heparan sulfate-fragments (HS) and (B) 100 μg/ml heparanase (Hep). In each titration, the resulting heat signals P were recorded (peak downwards are exothermic, peaks upwards endothermic reactions) against time (min) and presented in the top parts of Fig 5A and 5B. The integrated enthalpy changes ΔH versus [peptide]:[HS-fragments] (A) and [peptide]:[heparanase] (B) concentration ratios of the single titrations are illustrated in the bottom parts of Fig 5A and 5B.

[2] = cited from earlier work
Source text: Sepsis is a common and life-threatening disease especially in medical and surgical intensive care patients with mortality rates up to 60% [1]. It is characterized by a systemic inflammatory response to infection triggered by both pathogen-associated molecular patterns (PAMPs) as well as endogenous danger-associated molecular patterns (DAMPs). Here, heparan sulfate and the enzyme heparanase play key roles. Heparan sulfates are linear polysaccharides composed of repeating disaccharide subunits, which are D-glucosamine and D-glucuronic acid in their unmodified form. They are attached ...

heparanase = heparanase (UniProt Q9Y251); test: ITC; 2 mM peptide 19-2.5 titrated stepwise in 3 ul portions into 100 ug/ml heparanase in the calorimetric cell, 37 °C
Chain of heparanase (Q9Y251 36-543): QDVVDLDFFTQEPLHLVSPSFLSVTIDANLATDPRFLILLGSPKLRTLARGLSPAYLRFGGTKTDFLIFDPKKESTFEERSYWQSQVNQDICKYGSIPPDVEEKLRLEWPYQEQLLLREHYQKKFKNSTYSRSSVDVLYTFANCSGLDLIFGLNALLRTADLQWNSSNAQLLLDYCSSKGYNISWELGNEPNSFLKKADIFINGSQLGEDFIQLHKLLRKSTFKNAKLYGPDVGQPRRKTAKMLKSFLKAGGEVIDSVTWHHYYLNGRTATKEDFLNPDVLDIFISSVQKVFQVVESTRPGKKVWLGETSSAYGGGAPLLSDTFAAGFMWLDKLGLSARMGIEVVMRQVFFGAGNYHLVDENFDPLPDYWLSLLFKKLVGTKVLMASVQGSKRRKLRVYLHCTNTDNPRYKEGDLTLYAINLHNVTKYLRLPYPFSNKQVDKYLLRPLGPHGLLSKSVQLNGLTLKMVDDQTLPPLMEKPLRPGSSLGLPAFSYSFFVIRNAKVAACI

Molecule: GCKKYRRFRWKFKGK [peptide 19–2.5gek, peptide variant with the hydrophobic C-terminal of the peptide, FWFWG, removed]
- binding constant to HS-fragments on removal of C-terminal FWFWG [1]: dramatically decreases

Molecule: LL-37: naturally occurring antimicrobial cathelicidin peptide LL-37
- neutralization of pro-inflammatory action of PAMPs and DAMPs [2]: neutralizes the pro-inflammatory action of PAMPs and DAMPs
- toxicity ([2]; limits therapeutic use): intrinsic toxicity

- dH (at the beginning of the titration) (heparanase): -5.98 kcal/mol
Molecule: GCKKYRRFRWKFKGKFWFWG [synthetic antimicrobial peptide 19-2.5]
